Laboratory results: PubChem BioAssay AID330 (DTP/NCI, 2004)
Several values for one entry are separate records, joined by “and”; a condition that tells them apart may be missing. Equal entries are not always repeated. Toxic doses and inconclusive results are not listed.

Tested on: P388 leukemia ip, CD2F1 mice, survival T/C
Assay: NCI In Vivo Anticancer Drug Screen. Data for tumor model P388 Leukemia (intraperitoneal) in CD2F1 (CDF1) mice
Conditions: endpoint: median survival time, higher = longer survival
Procedure, shortened: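 Mice carrying the transplanted tumor received test compound or vehicle. Survival was recorded in each group, and the value is the treated-group measurement divided by that of the vehicle-treated control group.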

[1] = dose: 60.0 mg/kg/injection, schedule: Q01DX005 (ip), vehicle: Klucel (hydroxypropylcellulose) (HPC)
[2] = dose: 100.0 mg/kg/injection, schedule: Q01DX001 (ip), vehicle: Klucel (hydroxypropylcellulose) (HPC)
[3] = dose: 50.0 mg/kg/injection, schedule: Q01DX009 (ip), vehicle: saline
[4] = dose: 100.0 mg/kg/injection, schedule: Q01DX009 (ip), vehicle: saline
[5] = dose: 60.0 mg/kg/injection, schedule: Q01DX005 (ip), vehicle: saline
[6] = dose: 120.0 mg/kg/injection, schedule: Q01DX005 (ip), vehicle: saline
[7] = dose: 240.0 mg/kg/injection, schedule: Q01DX005 (ip), vehicle: saline
[8] = dose: 50.0 mg/kg/injection, schedule: Q01DX005 (ip), vehicle: saline with Tween-80
[9] = dose: 100.0 mg/kg/injection, schedule: Q01DX005 (ip), vehicle: saline with Tween-80
[10] = dose: 200.0 mg/kg/injection, schedule: Q01DX005 (ip), vehicle: saline with Tween-80
[11] = dose: 12.5 mg/kg/injection, schedule: Q01DX009 (ip), vehicle: saline
[12] = dose: 25.0 mg/kg/injection, schedule: Q01DX009 (ip), vehicle: saline
[13] = dose: 60.0 mg/kg/injection, schedule: Q01DX005 (ip), vehicle: saline with Tween-80
[14] = dose: 120.0 mg/kg/injection, schedule: Q01DX005 (ip), vehicle: saline with Tween-80
[15] = dose: 240.0 mg/kg/injection, schedule: Q01DX005 (ip), vehicle: saline with Tween-80
[16] = dose: 120.0 mg/kg/injection, schedule: Q01DX005 (ip), vehicle: Klucel (hydroxypropylcellulose) (HPC)
[17] = dose: 240.0 mg/kg/injection, schedule: Q01DX005 (ip), vehicle: Klucel (hydroxypropylcellulose) (HPC)

Structure (SMILES): O=C(NC1(Sc2ccccc2)CC1)c1ccc(Cl)cc1
- T/C (dose: 15.0 mg/kg/injection, schedule: Q01DX005 (ip), vehicle: Klucel (hydroxypropylcellulose) (HPC)): 98 % of control
- T/C (dose: 30.0 mg/kg/injection, schedule: Q01DX005 (ip), vehicle: Klucel (hydroxypropylcellulose) (HPC)): 88 % of control
- T/C [1]: 88 % of control

Structure (SMILES): O=C1c2ccccc2C(=O)N1c1ccccc1
- T/C [2]: 99 % of control
- T/C (dose: 200.0 mg/kg/injection, schedule: Q01DX001 (ip), vehicle: Klucel (hydroxypropylcellulose) (HPC)): 100 % of control
- T/C (dose: 400.0 mg/kg/injection, schedule: Q01DX001 (ip), vehicle: Klucel (hydroxypropylcellulose) (HPC)): 100 % of control

Structure (SMILES): COC(=O)[C@@]12OC[C@]34C([C@@H](O)C1O)[C@@]1(C)CC(=O)C(O)=C(C)C1C[C@H]3OC(=O)[C@H](OC(=O)c1cccc(Cl)c1)[C@H]42 (stereo partly drawn)
- T/C (dose: 0.25 mg/kg/injection, schedule: Q01DX005 (ip), vehicle: DMSO): 119 % of control
- T/C (dose: 0.5 mg/kg/injection, schedule: Q01DX005 (ip), vehicle: DMSO): 112 % of control
- T/C (dose: 1.0 mg/kg/injection, schedule: Q01DX005 (ip), vehicle: DMSO): 121 % of control and 93 % of control
- T/C (dose: 2.0 mg/kg/injection, schedule: Q01DX005 (ip), vehicle: DMSO): 109 % of control and 110 % of control
- T/C (dose: 4.0 mg/kg/injection, schedule: Q01DX005 (ip), vehicle: DMSO): 105 % of control
- T/C (dose: 8.0 mg/kg/injection, schedule: Q01DX005 (ip), vehicle: DMSO): 101 % of control and 104 % of control
- T/C (dose: 16.0 mg/kg/injection, schedule: Q01DX005 (ip), vehicle: DMSO): 111 % of control
- T/C (dose: 32.0 mg/kg/injection, schedule: Q01DX005 (ip), vehicle: DMSO): 108 % of control

Structure (SMILES): Cc1[nH]oc(=O)c1C(=O)O
- T/C [3]: 100 % of control
- T/C [4]: 99 % of control
- T/C (dose: 200.0 mg/kg/injection, schedule: Q01DX009 (ip), vehicle: saline): 89 % of control

Structure (SMILES): CC(=O)Nn1cnc2[nH]ncc2c1=O
- T/C [5]: 102 % of control
- T/C [6]: 101 % of control
- T/C [7]: 101 % of control

Structure (SMILES): Cc1ncn2c(C)nnc2c1C
- T/C (dose: 50.0 mg/kg/injection, schedule: Q01DX009 (ip), vehicle: saline with Tween-80): 102 % of control
- T/C (dose: 100.0 mg/kg/injection, schedule: Q01DX009 (ip), vehicle: saline with Tween-80): 100 % of control
- T/C (dose: 200.0 mg/kg/injection, schedule: Q01DX009 (ip), vehicle: saline with Tween-80): 102 % of control

Structure (SMILES): O=C(NCCCCN1CC1)C(=O)NCCCCN1CC1
- T/C (dose: 0.78 mg/kg/injection, schedule: Q04DX003 (ip), vehicle: Klucel (hydroxypropylcellulose) (HPC)): 120 % of control
- T/C (dose: 3.12 mg/kg/injection, schedule: Q04DX003 (ip), vehicle: Klucel (hydroxypropylcellulose) (HPC)): 162 % of control
- T/C (dose: 6.25 mg/kg/injection, schedule: Q04DX003 (ip), vehicle: Klucel (hydroxypropylcellulose) (HPC)): 178 % of control

Structure (SMILES): COc1ccc(C2OCC3C2CO[C@H]3c2ccc(OC)c(OC)c2)cc1OC (mixture of isomers)
- T/C (dose: 8.0 mg/kg/injection, schedule: Q01DX009 (ip), vehicle: Klucel (hydroxypropylcellulose) (HPC)): 90 % of control
- T/C (dose: 16.0 mg/kg/injection, schedule: Q01DX009 (ip), vehicle: Klucel (hydroxypropylcellulose) (HPC)): 97 % of control
- T/C (dose: 32.0 mg/kg/injection, schedule: Q01DX009 (ip), vehicle: Klucel (hydroxypropylcellulose) (HPC)): 91 % of control
- T/C (dose: 64.0 mg/kg/injection, schedule: Q01DX009 (ip), vehicle: Klucel (hydroxypropylcellulose) (HPC)): 89 % of control

Structure (SMILES): CC(=O)Cc1cc(-c2cc(CC(C)=O)[nH]n2)n[nH]1
- T/C [5]: 98 % of control
- T/C [6]: 95 % of control
- T/C [7]: 102 % of control

Structure (SMILES): CCN(CC)CCOc1ccc(Cl)c(Cl)c1
- T/C [8]: 101 % of control
- T/C [9]: 106 % of control
- T/C [10]: 106 % of control

Structure (SMILES): [CH3][Sn]1([CH3])[O]c2ccccc2C=NCCN=Cc2ccccc2[O]1
- T/C [11]: 100 % of control and 91 % of control
- T/C [12]: 106 % of control and 86 % of control
- T/C [3]: 91 % of control
- T/C [4]: 107 % of control

Structure (SMILES): Nc1cc(C(=O)Nc2ccc(C3=NCCN3)cc2)ccc1C(=O)Nc1ccc(C2=NCCN2)cc1
- T/C (dose: 20.0 mg/kg/injection, schedule: Q04DX003 (ip), vehicle: saline with Tween-80): 168 % of control
- T/C (dose: 30.0 mg/kg/injection, schedule: Q04DX003 (ip), vehicle: saline with Tween-80): 204 % of control
- T/C (dose: 44.0 mg/kg/injection, schedule: Q04DX003 (ip), vehicle: saline with Tween-80): 277 % of control
- T/C (dose: 66.0 mg/kg/injection, schedule: Q04DX003 (ip), vehicle: saline with Tween-80): 181 % of control

Structure (SMILES): O=C(O)C1CCC2(CC1)SCC1(CS2)CSC2(CCC(C(=O)O)CC2)SC1 (stereo not drawn)
- T/C (dose: 7.5 mg/kg/injection, schedule: Q01DX009 (ip), vehicle: saline with Tween-80): 104 % of control
- T/C (dose: 15.0 mg/kg/injection, schedule: Q01DX009 (ip), vehicle: saline with Tween-80): 99 % of control
- T/C (dose: 30.0 mg/kg/injection, schedule: Q01DX009 (ip), vehicle: saline with Tween-80): 107 % of control

Structure (SMILES): Cc1ccc2c(c1)NC(=O)CC(c1ccccc1)=N2
- T/C [13]: 97 % of control
- T/C [14]: 96 % of control
- T/C [15]: 96 % of control

Structure (SMILES): C[N+]1(C)CCCC(O)(C(=O)c2ccccc2)C1 (stereo not drawn)
- T/C (dose: 100.0 mg/kg/injection, schedule: Q01DX001 (ip), vehicle: saline): 98 % of control
- T/C (dose: 200.0 mg/kg/injection, schedule: Q01DX001 (ip), vehicle: saline): 100 % of control

Structure (SMILES): O=C(OC1(c2nccc3ccccc23)CCN(CCc2ccccc2)CC1)c1ccccc1
- T/C (dose: 6.25 mg/kg/injection, schedule: Q01DX009 (ip), vehicle: saline): 105 % of control
- T/C [11]: 99 % of control
- T/C [12]: 97 % of control

Structure (SMILES): CCCC(OC(=O)c1ccc([N+](=O)[O-])cc1)C(=O)O (stereo not drawn)
- T/C (dose: 25.0 mg/kg/injection, schedule: Q01DX001 (ip), vehicle: Klucel (hydroxypropylcellulose) (HPC)): 95 % of control
- T/C (dose: 50.0 mg/kg/injection, schedule: Q01DX001 (ip), vehicle: Klucel (hydroxypropylcellulose) (HPC)): 105 % of control
- T/C [2]: 100 % of control

Structure (SMILES): COc1cc2c(c(OC)c1OC)-c1ccc(OC)c(=O)cc1[C@@H](N(C)C)CC2
- T/C (dose: 1.25 mg/kg/injection, schedule: Q01DX009 (ip), vehicle: Klucel (hydroxypropylcellulose) (HPC)): 100 % of control
- T/C (dose: 2.5 mg/kg/injection, schedule: Q01DX009 (ip), vehicle: Klucel (hydroxypropylcellulose) (HPC)): 107 % of control
- T/C (dose: 5.0 mg/kg/injection, schedule: Q01DX009 (ip), vehicle: Klucel (hydroxypropylcellulose) (HPC)): 112 % of control and 117 % of control
- T/C (dose: 10.0 mg/kg/injection, schedule: Q01DX009 (ip), vehicle: Klucel (hydroxypropylcellulose) (HPC)): 118 % of control and 124 % of control

Structure (SMILES): O=C(NC1C=Nc2ccccc2NC1=O)c1ccc(Cl)cc1 (stereo not drawn)
- T/C [1]: 91 % of control
- T/C [16]: 98 % of control
- T/C [17]: 91 % of control

Structure (SMILES): COC(=O)C1=NC(=S)N=C(C(=O)OC)C1(C)C(=O)c1ccc(Cl)cc1
- T/C [13]: 95 % of control
- T/C [14]: 99 % of control
- T/C [15]: 94 % of control

Structure (SMILES): CC(C)(C)C1=CC(C#N)N(Cc2ccccc2)CC1 (stereo not drawn)
- T/C [1]: 110 % of control
- T/C [16]: 108 % of control
- T/C [17]: 109 % of control

Structure (SMILES): NNC(=O)CCn1[nH]c(=O)c(Cl)c(Cl)c1=O
- T/C [8]: 100 % of control
- T/C [9]: 100 % of control
- T/C [10]: 100 % of control

Structure (SMILES): CC(C)c1cccc(C(C)C)c1Oc1ccc([N+](=O)[O-])cc1[N+](=O)[O-]
- T/C (dose: 50.0 mg/kg/injection, schedule: Q04DX003 (ip), vehicle: saline with Tween-80): 94 % of control
- T/C (dose: 100.0 mg/kg/injection, schedule: Q04DX003 (ip), vehicle: saline with Tween-80): 93 % of control
- T/C (dose: 200.0 mg/kg/injection, schedule: Q04DX003 (ip), vehicle: saline with Tween-80): 92 % of control
- T/C (dose: 400.0 mg/kg/injection, schedule: Q04DX003 (ip), vehicle: saline with Tween-80): 90 % of control
